{
  "source": "patent EP3011965B1",
  "about": "“SALVIA MILTIORRHIZA EXTRACT, MICROPELLET FORMULATION THEREOF, METHODS OF PREPARING SAME, AND USES THEREOF” (Tasly Pharmaceutical Group Co., Ltd., priority 2013, dated 2014)",
  "tested_on": "zebra fish high blood lipid model",
  "assay": "Quantitative evaluation of blood lipid lowering effect in zebra fish high blood lipid model",
  "format": "in vivo, zebra fish of ALBINO strain",
  "conditions": "48 hours after treatment; for Blood lipid reducing rate: 0.081 µg/ml (text: 0.08 µg/ml), vs model group",
  "experimental": "Animal: Zebra fish embryos were propagated by means of natural pair mating. Each mating, 4∼5 pairs of adult were prepared, and in average, each pair of zebra fish produced 200∼300 embryos. At 6th hour post-fertilization (6hpf) and 24hpf, the embryos were cleaned (removing dead embryo) and qualified embryos were selected according to embryo developing stage (Kimmel et al. 1995). At 28°C, embryos were incubated in fish-farming water, which contained 200mg instant soluble sea salt in 1L reverse osmosis water with conductivity of 480-510 µS/cm, pH of 6.9-7.2, hardness of 53.7-71.6 mg/L CaCO3. Feeding was required since 9 days post-fertilization (9dPf) because the embryos could get nutrients from their own yolk sac. After study, tricaine methane sulfonate (TMS) was used to overexpose the embryos in various developmental stages and the zebra fish were anesthetized and sacrificed. Sacrifice procedure was in light of the sacrifice-under-anesthesia regulatory requirement of AVMA (America Veterinary medical Association).\nAccording to results of part A, the blood lipid lowering effect of Danshen extract in three concentrations was evaluated (usually at MNLC, 1/3MNLC and 1/10 MNLC), and 30 zebra fish treated in each concentration.\nHigh-fat food was used to feed juvenile fish of zebra fish of ALBINO strain to induce zebra fish high blood lipid model.\nAfter feeding, the zebra fish high blood lipid model was treated with tested drug for 48 hours.\nPositive drug: lovastatin at 0.08 µg/ml.\nAfter being treated with tested drugs, zebra fish were fat stained with fat-specific colorant.\nFifteen zebra fish were randomly selected in each concentration to observe intensity of zebra fish tail blood fat stain, pictured and saved.\nImage -Pro Plus 6.0 image analytical software was used to analyze the image. The signal strength of zebra fish tail blood fat stain (S) was calculated and quantitatively analyzed. The statistical results were expressed as X ± SE. […]",
  "note": "Marks after values point to notes of the source that are not given here.",
  "data": [
    {"molecule": "CC[C@H](C)C(=O)O[C@H]1C[C@@H](C)C=C2C=C[C@H](C)[C@H](CC[C@@H]3C[C@@H](O)CC(=O)O3)[C@H]21", "note": "[Lovastatin, lovastatin]", "values": [
      {"measurement": "Blood lipid reducing rate", "result": "26.3* %"},
      {"measurement": "Blood lipid reducing rate", "setting": "listed as lovastatin", "result": 26.3, "unit": "%"},
      {"measurement": "Tail blood lipid IOD", "setting": "0.081 µg/ml, Mean±SE", "result": "2142±109"}
    ]}
  ]
}
